Measurements reported in patent US9833497B2, “Human originated EGF domain proteins and use of the same” (CHENGDU SOURCEBIO LIMITED-LIABILITY COMPANY, priority 2013, dated 2017).

Legend:
Format in all cases: cell-based
[1] = tested on: E. coli DH5α; experiment: Antibacterial activity: MIC and growth curve against E. coli DH5α in 96-well plate; settings: minimal inhibitory concentration against E. coli DH5α; 96-well plate, 5×10^5 CFU/mL, 37° C., judged after 8 h
Summary of the method: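 Log-phase DH5α (OD600 about 0.5, 37° C, 185 rpm in LB) was pelleted, resuspended in fresh LB and seeded at 5×10^5 CFU/mL with recombinant protein at 50, 25 and 12.5 μg/mL (two-fold series), in triplicate. Plates were shaken at 175 rpm, 37° C, and OD600 was read every 30 min. MIC was the lowest concentration with no growth.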

[2] = tested on: E. coli BL21; experiment: MIC against Gram-negative bacteria: E. coli BL21
Summary of the method: (§1)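 Growth inhibition by human EGF domain proteins was scored in LB liquid culture seeded at 5×10^5 CFU/mL. Protein was applied as a two-fold dilution series in triplicate, with shaking incubation at 37° C; MIC is the lowest concentration giving no growth.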

[3] = tested on: Pseudomonas aeruginosa; experiment: MIC against Gram-negative bacteria: Pseudomonas aeruginosa
Summary of the method: as §1

[4] = tested on: Klebsiella pneumonia; experiment: MIC against Gram-negative bacteria: Klebsiella pneumonia
Summary of the method: as §1

[5] = tested on: Enterobacter cloacae; experiment: MIC against Gram-negative bacteria: Enterobacter cloacae
Summary of the method: as §1

[6] = tested on: Aeromonas hydrophila; experiment: MIC against Gram-negative bacteria: Aeromonas hydrophila
Summary of the method: as §1

[7] = tested on: Citrobacter diversus; experiment: MIC against Gram-negative bacteria: Citrobacter diversus
Summary of the method: as §1

[8] = tested on: Moraxella catarrhalis; experiment: MIC against Gram-negative bacteria: Moraxella catarrhalis
Summary of the method: as §1

[9] = tested on: Proteus mirabilis; experiment: MIC against Gram-negative bacteria: Proteus mirabilis
Summary of the method: as §1

[10] = tested on: Proteus vulgaris; experiment: MIC against Gram-negative bacteria: Proteus vulgaris
Summary of the method: as §1

[11] = tested on: Serratia marcescens; experiment: MIC against Gram-negative bacteria: Serratia marcescens
Summary of the method: as §1

[12] = 96-well plate, 5×10^5 CFU/mL, 37° C., 10 h
[13] = E. coli BL21, 10 h cultivation at 37° C., 5×10^5 CFU/mL
[14] = P. aeruginosa, 10 h cultivation at 37° C., 5×10^5 CFU/mL
[15] = K. pneumonia, 10 h cultivation at 37° C., 5×10^5 CFU/mL
[16] = E. cloacae, 10 h cultivation at 37° C., 5×10^5 CFU/mL
[17] = A. hydrophila, 10 h cultivation at 37° C., 5×10^5 CFU/mL
[18] = C. diversus, 10 h cultivation at 37° C., 5×10^5 CFU/mL
[19] = M. catarrhalis, 10 h cultivation at 37° C., 5×10^5 CFU/mL
[20] = P. mirabilis, 10 h cultivation at 37° C., 5×10^5 CFU/mL
[21] = P. vulgaris, 10 h cultivation at 37° C., 5×10^5 CFU/mL
[22] = S. marcescens, 10 h cultivation at 37° C., 5×10^5 CFU/mL

Substance	MIC [1] [µg/mL]	MIC E. coli BL21 [2, 12] [µg/mL]	MIC P. aeruginosa [3, 12] [µg/mL]	MIC K. pneumonia [4, 12] [µg/mL]	MIC E. cloacae [5, 12] [µg/mL]	MIC A. hydrophila [6, 12] [µg/mL]	MIC C. diversus [7, 12] [µg/mL]	MIC M. catarrhalis [8, 12] [µg/mL]	MIC P. mirabilis [9, 12] [µg/mL]	MIC P. vulgaris [10, 12] [µg/mL]	MIC S. marcescens [11, 12] [µg/mL]	MIC (μg/mL) E. coli BL21 [2, 13] [µg/mL]	MIC (μg/mL) P. aeruginosa [3, 14] [µg/mL]	MIC (μg/mL) K. pneumonia [4, 15] [µg/mL]	MIC (μg/mL) E. cloacae [5, 16] [µg/mL]	MIC (μg/mL) A. hydrophila [6, 17] [µg/mL]	MIC (μg/mL) C. diversus [7, 18] [µg/mL]	MIC (μg/mL) M. catarrhalis [8, 19] [µg/mL]	MIC (μg/mL) P. mirabilis [9, 20] [µg/mL]	MIC (μg/mL) P. vulgaris [10, 21] [µg/mL]	also measured
PRT708 (QYYVCHHYCVNSESCTIGDDGSVECVCPTRYEGPKCE; listed as Homo sapiens)	50	25	50	25	50	12.5	50	12.5	50	12.5	50										
PRT894 (NLDDCASSPCDSGTCLDKIDGYECACEPGYTGSMCN; listed as Homo sapiens)	12.5																				MIC ([2]; E. coli BL21, 10 h cultivation at 37° C.): 50 µg/mL; MIC ([3]; P. aeruginosa, 10 h cultivation at 37° C.): 12.5 µg/mL; MIC ([4]; K. pneumonia, 10 h cultivation at 37° C.): 50 µg/mL; MIC ([5]; E. cloacae, 10 h cultivation at 37° C.): 12.5 µg/mL; MIC ([6]; A. hydrophila, 10 h cultivation at 37° C.): 50 µg/mL; MIC ([7]; C. diversus, 10 h cultivation at 37° C.): 12.5 µg/mL; MIC ([8]; M. catarrhalis, 10 h cultivation at 37° C.): 50 µg/mL; MIC ([9]; P. mirabilis, 10 h cultivation at 37° C.): 12.5 µg/mL; MIC ([10]; P. vulgaris, 10 h cultivation at 37° C.): 50 µg/mL; MIC ([11]; S. marcescens, 10 h cultivation at 37° C.): 12.5 µg/mL
PRT617 (CNCNSKGSLSARCDNSGRCSCKPGVTGARCDRCLPGFHMLTDAGCTQ; listed as Homo sapiens)	25	12.5	25	12.5	25	12.5	25	12.5	25	12.5	25										
PRT254 (PCLEGGTCILSPKGASCNCPHPYTGDRCE; listed as Homo sapiens)	25											12.5	12.5	12.5	12.5	25	12.5	25	12.5	12.5	MIC (μg/mL) S. marcescens [11, 22]: 12.5 µg/mL
PRT189 (SIDACASSPCFNRATCYTDLSTDTFVCNCPYGFVGSRCE; listed as Homo sapiens)	25											12.5	25	12.5	25	50	25	12.5	25	50	MIC (μg/mL) S. marcescens [11, 22]: 25 µg/mL
PRT1272 (DVDECVEGTDNCHIDAICQNTPRSYKCICKSGYTGDGKHCK; listed as Homo sapiens)	25																				MIC against E. coli BL21 ([2]; E. coli BL21, 96-well plate, 5×10^5 CFU/mL, 37° C., 10 h): 50 µg/mL; MIC against P. aeruginosa ([3]; Pseudomonas aeruginosa, 96-well plate, 5×10^5 CFU/mL, 37° C., 10 h): 100 µg/mL; MIC against K. pneumonia ([4]; Klebsiella pneumonia, 96-well plate, 5×10^5 CFU/mL, 37° C., 10 h): 50 µg/mL; MIC against E. cloacae ([5]; Enterobacter cloacae, 96-well plate, 5×10^5 CFU/mL, 37° C., 10 h): 25 µg/mL; MIC against A. hydrophila ([6]; Aeromonas hydrophila, 96-well plate, 5×10^5 CFU/mL, 37° C., 10 h): 12.5 µg/mL; MIC against C. diversus ([7]; Citrobacter diversus, 96-well plate, 5×10^5 CFU/mL, 37° C., 10 h): 50 µg/mL; MIC against M. catarrhalis ([8]; Moraxella catarrhalis, 96-well plate, 5×10^5 CFU/mL, 37° C., 10 h): 12.5 µg/mL; MIC against P. mirabilis ([9]; Proteus mirabilis, 96-well plate, 5×10^5 CFU/mL, 37° C., 10 h): 50 µg/mL; MIC against P. vulgaris ([10]; Proteus vulgaris, 96-well plate, 5×10^5 CFU/mL, 37° C., 10 h): 12.5 µg/mL; MIC against S. marcescens ([11]; Serratia marcescens, 96-well plate, 5×10^5 CFU/mL, 37° C., 10 h): 50 µg/mL
